# Experimental data reported in patent US11192882B2, “Crystal form of small molecule immune compound, preparation method thereof and pharmaceutical composition containing the same” (SHENZHEN NEPTUNUS PHARMACEUTICAL RESEARCH INSTITUTE CO., …, priority 2018, dated 2021).
# Assay: Stress testing (accelerated test for 10 days) of the solid: crystal form B and crude product
# Type: physicochemical
# Settings: for Purity compared with day 0 (in words): accelerated test for 10 days
# Method: Detection instrument: Agilent 1260 series (U.S.)
# Chromatographic column: Waters Sunfire C18;
# Mobile phase A: water-mobile phase acetonitrile B (80:20);
# Column temperature: 40° C.; Detection wavelength: 390 nm.
# Detection basis: High performance liquid chromatography method, Pharmacopoeia of the People's Republic of China, Part II Appendix VD
# The obtained crystal form B was subjected to stability studies (accelerated test for 10 days), to compare the data of purity, maximum single impurity and total impurities of the new crystal form under the conditions of 60° C., humidity 92.5%, and light irradiation with the data on day 0.
# The crude product of (3Z,6Z)-3-[((E)-3-(5-tert-butyl)-1H-imidazolyl-4-yl)meth ylene]-6-((E)-3-(3-fluorophenyl)-2-propenylene)piperazine-2,5-dione was subjected to stability studies (accelerated test for 10 days), to compare the data of purity, maximum single impurity of the crude product stored at 40° C., 60° C. to the data on day 0.
# [1] = Day 10, sample 1, no stress condition given
structure (smiles),measurement,setting,value
"CC(C)(C)c1nc[nH]c1/C=c1\[nH]c(=O)/c(=C/C=C/c2cccc(F)c2)[nH]c1=O [Crude product, (3Z,6Z)-3-[((E)-3-(5-tert-butyl)-1H-imidazolyl-4-yl)methylene]-6-((E)-3-(3-fluorophenyl)-2-propenylene)piperazine-2,5-dione]",Purity compared with crystal form B under the same conditions (in words),"60° C., day 5 and day 10",lower than that of the crystal form B
same,Content (%),"crude product, 40° C. Day 5",99.08%
same,Maximum single impurity (%),"crude product, 40° C. Day 5",0.25(RRT: 0.95) %
same,Content (%),"crude product, 40° C. Day 10",98.68%
same,Maximum single impurity (%),"crude product, 40° C. Day 10",0.50(RRT: 0.95) %
same,Content (%),"crude product, 60° C. Day 5",96.89%
same,Maximum single impurity (%),"crude product, 60° C. Day 5",1.14(RRT: 0.91) %
same,Content (%),"crude product, 60° C. Day 10",95.27%
same,Maximum single impurity (%),"crude product, 60° C. Day 10",1.88(RRT: 0.91) %
same,Content (%),"crude product, Day 0",99.49%
same,Maximum single impurity (%),"crude product, Day 0",0.24(RRT: 0.95) %
"CC(C)(C)c1nc[nH]c1/C=c1\[nH]c(=O)/c(=C/C=C/c2cccc(F)c2)[nH]c1=O [crystal form B, (3Z,6Z)-3-[((E)-3-(5-tert-butyl)-1H-imidazolyl-4-yl)methylene]-6-((E)-3-(3-fluorophenyl)-2-propenylene)piperazine-2,5-dione]",Maximum single impurity (%),Day 0,0.24 (RRT: 0.95) %
same,Purity (%),Day 0,99.50%
same,Total impurities (%),Day 0,0.50%
same,Maximum single impurity (%),"Day 5, 60° C.",0.24 (RRT: 0.95) %
same,Purity (%),"Day 5, 60° C.",99.50%
same,Total impurities (%),"Day 5, 60° C.",0.50%
same,Maximum single impurity (%),"Day 5, humidity 92.5%",0.24 (RRT: 0.95) %
same,Purity (%),"Day 5, humidity 92.5%",99.50%
same,Total impurities (%),"Day 5, humidity 92.5%",0.50%
same,Maximum single impurity (%),"Day 5, light irradiation",0.26 (RRT: 0.95) %
same,Purity (%),"Day 5, light irradiation",99.40%
same,Total impurities (%),"Day 5, light irradiation",0.60%
same,Maximum single impurity (%),"Day 10, 60° C.",0.24 (RRT: 0.95) %
same,Purity (%),"Day 10, 60° C.",99.50%
same,Total impurities (%),"Day 10, 60° C.",0.50%
same,Maximum single impurity (%),"Day 10, humidity 92.5%",0.24 (RRT: 0.95) %
same,Purity (%),"Day 10, humidity 92.5%",99.50%
same,Total impurities (%),"Day 10, humidity 92.5%",0.50%
same,Maximum single impurity (%),"Day 10, light irradiation",0.26 (RRT: 0.95) %
same,Purity (%),"Day 10, light irradiation",99.40%
same,Total impurities (%),"Day 10, light irradiation",0.60%
same,Maximum single impurity (%),[1],0.24 (RRT: 0.95) %
same,Purity (%),[1],99.50%
same,Total impurities (%),[1],0.50%
same,Purity compared with day 0 (in words),light irradiation,slightly reduced
same,Purity compared with day 0 (in words),"other conditions (60° C., humidity 92.5%)",stable
